Laboratory results reported in ChEMBL document CHEMBL1201862, “PubChem BioAssay data set” (2004).
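Following 48 hours of exposure in 96-well plates, responses at five concentrations were used to interpolate endpoints linearly. GI50 is the concentration that inhibits growth by half.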 The source made the active and inactive calls. Cut-off read from the data, not from the text of the source: active = GI50 up to about 1.1 µM and inactive = higher.

Columns and labels:
Experiment in all cases: NCI tumour cell line growth inhibition, 48 h
[1] = system: UO-31
[2] = system: SK-OV-3
[3] = system: HL-60
[4] = system: NCI-H23
[5] = system: ACHN
[6] = system: NCI-H226
[7] = system: M19-MEL
[8] = system: COLO 205
[9] = system: UACC-257
[10] = system: SNB-78
[11] = system: SF-268
[12] = system: U-251
[13] = system: EKVX
[14] = system: MOLT-4
[15] = system: K562
[16] = system: XF498
[17] = system: DMS-273
[18] = system: HOP-62
[19] = system: CCRF-CEM
[20] = system: HOP-18
[21] = system: NCI-H460
[22] = system: OVCAR-3
[23] = system: TK-10
[24] = system: SF-539
[25] = system: SK-MEL-5
[26] = system: CAKI-1
[27] = system: UACC-62
[28] = system: SK-MEL-2
[29] = system: 786-0
[30] = system: SNB-19
[31] = system: IGROV-1
[32] = system: DMS-114
[33] = system: HT-29
[34] = system: LOX IMVI
[35] = system: KM-20L2
[36] = system: NCI-H522
[37] = system: SN12C
[38] = system: SF-295
[39] = system: KM12
[40] = system: DLD-1
[41] = system: A498
[42] = system: LXFL 529
[43] = system: OVCAR-5
[44] = system: OVCAR-4
[45] = system: HCT-15
[46] = system: OVCAR-8
[47] = system: Malme-3M
[48] = system: SNB-75
[49] = system: SK-MEL-28
[50] = system: RPMI-8226
[51] = system: HOP-92
[52] = system: M14
[53] = system: HCC 2998
[54] = system: SW-620
[55] = system: A549
[56] = system: HCT-116
[57] = system: SR
[58] = system: RXF 393

## CCOc1ccc2c(c1)[n+]([O-])c(-c1nc3ccccc3s1)c(N)[n+]2[O-]
[1]
  GI50: 31.3 µM (inactive)
[2]
  GI50: > 100 µM (inactive)
[3]
  GI50: 31.2 µM (inactive)
[4]
  GI50: 25.6 µM (inactive)
[5]
  GI50: 55.1 µM (inactive)
[6]
  GI50: 45.4 µM (inactive)
[7]
  GI50: > 100 µM (inactive)
[8]
  GI50: > 100 µM (inactive)
[9]
  GI50: 42.1 µM (inactive)
[10]
  GI50: > 100 µM (inactive)
[11]
  GI50: 32.1 µM (inactive)
[12]
  GI50: 46.7 µM (inactive)
[13]
  GI50: 53.1 µM (inactive)
[14]
  GI50: 36.7 µM (inactive)
[15]
  GI50: 61.9 µM (inactive)
[16]
  GI50: 25.8 µM (inactive)
[17]
  GI50: 52.6 µM (inactive)
[18]
  GI50: 88.7 µM (inactive)
[19]
  GI50: 48 µM (inactive)
[20]
  GI50: 15.4 µM (inactive)
[21]
  GI50: 58.7 µM (inactive)
[22]
  GI50: 38.4 µM (inactive)
[23]
  GI50: > 100 µM (inactive)
[24]
  GI50: 43.1 µM (inactive)
[25]
  GI50: 30.3 µM (inactive)
[26]
  GI50: 83.4 µM (inactive)
[27]
  GI50: 64.7 µM (inactive)
[28]
  GI50: 52.8 µM (inactive)
[29]
  GI50: 48.4 µM (inactive)
[30]
  GI50: 48.1 µM (inactive)
[31]
  GI50: 75.9 µM (inactive)
[32]
  GI50: 44.1 µM (inactive)
[33]
  GI50: 58.7 µM (inactive)
[34]
  GI50: 64 µM (inactive)
[35]
  GI50: > 100 µM (inactive)
[36]
  GI50: 21.6 µM (inactive)
[37]
  GI50: 82.6 µM (inactive)
[38]
  GI50: 50 µM (inactive)
[39]
  GI50: 60.7 µM (inactive)
[40]
  GI50: 76.4 µM (inactive)
[41]
  GI50: 61.8 µM (inactive)
[42]
  GI50: 37.4 µM (inactive)
[43]
  GI50: > 100 µM (inactive)
[44]
  GI50: 65.5 µM (inactive)
[45]
  GI50: 49.5 µM
[46]
  GI50: 75.2 µM (inactive)
[47]
  GI50: > 100 µM (inactive)
[48]
  GI50: 57.4 µM (inactive)
[49]
  GI50: 38.7 µM (inactive)
[50]
  GI50: 44.3 µM (inactive)
[51]
  GI50: 26.2 µM (inactive)
[52]
  GI50: 60.7 µM (inactive)
[53]
  GI50: 96.6 µM (inactive)
[54]
  GI50: 86.7 µM (inactive)
[55]
  GI50: 61.8 µM (inactive)

## Cc1ccc2oc(=O)c(-c3ccccc3)nc2c1
[1]
  GI50: 27 µM (inactive)
[3]
  GI50: > 10 µM (inactive)
[4]
  GI50: 24.7 µM (inactive)
[5]
  GI50: 27.9 µM (inactive)
[6]
  GI50: 37.8 µM (inactive)
[7]
  GI50: 23.1 µM (inactive)
[8]
  GI50: 24.5 µM (inactive)
[9]
  GI50: 37.5 µM (inactive)
[11]
  GI50: 25.2 µM (inactive)
[13]
  GI50: 39.5 µM (inactive)
[14]
  GI50: 10.7 µM (inactive)
[15]
  GI50: 24.3 µM (inactive)
[16]
  GI50: 33.7 µM (inactive)
[17]
  GI50: 17.6 µM (inactive)
[18]
  GI50: 36.7 µM (inactive)
[19]
  GI50: 18.5 µM (inactive)
[20]
  GI50: 34.2 µM (inactive)
[21]
  GI50: 36.3 µM (inactive)
[22]
  GI50: 46.5 µM (inactive)
[23]
  GI50: 34 µM (inactive)
[24]
  GI50: 18.2 µM (inactive)
[25]
  GI50: 30.8 µM (inactive)
[26]
  GI50: 28.9 µM (inactive)
[28]
  GI50: 21 µM (inactive)
[29]
  GI50: 23.3 µM (inactive)
[30]
  GI50: 38.9 µM (inactive)
[33]
  GI50: 45.6 µM (inactive)
[56]
  GI50: 20.6 µM (inactive)
[34]
  GI50: 20.2 µM (inactive)
[57]
  GI50: 29.5 µM (inactive)
[36]
  GI50: 15.3 µM (inactive)
[37]
  GI50: 31.8 µM (inactive)
[38]
  GI50: 40.5 µM (inactive)
[39]
  GI50: 19.6 µM (inactive)
[40]
  GI50: 11.7 µM (inactive)
[43]
  GI50: 39.4 µM (inactive)
[44]
  GI50: 23.8 µM (inactive)
[45]
  GI50: 25.1 µM
[46]
  GI50: 36.4 µM (inactive)
[47]
  GI50: 23.4 µM (inactive)
[48]
  GI50: 37.5 µM (inactive)
[49]
  GI50: 50.4 µM (inactive)
[50]
  GI50: 31.5 µM (inactive)
[52]
  GI50: 43.3 µM (inactive)
[53]
  GI50: 19.9 µM (inactive)
[54]
  GI50: 22 µM (inactive)
[55]
  GI50: 26 µM (inactive)

## COc1cc(/C=C\c2cccnc2)cc(OC)c1OC
[1]
  GI50: 27.9 µM (inactive)
[3]
  GI50: 18.9 µM (inactive)
[4]
  GI50: 66.8 µM (inactive)
[5]
  GI50: > 100 µM (inactive)
[6]
  GI50: > 100 µM (inactive)
[7]
  GI50: 76.7 µM (inactive)
[8]
  GI50: 29.3 µM (inactive)
[9]
  GI50: 68.4 µM (inactive)
[10]
  GI50: > 100 µM (inactive)
[11]
  GI50: 77.1 µM (inactive)
[12]
  GI50: 33 µM (inactive)
[13]
  GI50: 38.1 µM (inactive)
[14]
  GI50: 9.84 µM (inactive)
[15]
  GI50: 24.5 µM (inactive)
[16]
  GI50: 48.9 µM (inactive)
[17]
  GI50: 33.1 µM (inactive)
[18]
  GI50: 37.8 µM (inactive)
[19]
  GI50: 25.7 µM (inactive)
[58]
  GI50: 22.6 µM (inactive)
[20]
  GI50: > 100 µM (inactive)
[21]
  GI50: 40.8 µM (inactive)
[22]
  GI50: 54 µM (inactive)
[23]
  GI50: > 100 µM (inactive)
[24]
  GI50: 36.6 µM (inactive)
[25]
  GI50: 18.9 µM (inactive)
[26]
  GI50: 44.5 µM (inactive)
[27]
  GI50: 46.3 µM (inactive)
[29]
  GI50: 67.9 µM (inactive)
[30]
  GI50: 83.9 µM (inactive)
[31]
  GI50: 57.9 µM (inactive)
[32]
  GI50: 46.8 µM (inactive)
[33]
  GI50: 40.7 µM (inactive)
[56]
  GI50: 58.2 µM (inactive)
[34]
  GI50: 26.2 µM (inactive)
[35]
  GI50: 33.8 µM (inactive)
[36]
  GI50: 25.3 µM (inactive)
[37]
  GI50: 42.6 µM (inactive)
[38]
  GI50: 36.6 µM (inactive)
[39]
  GI50: 36.1 µM (inactive)
[40]
  GI50: 72.1 µM (inactive)
[42]
  GI50: 48.1 µM (inactive)
[43]
  GI50: > 100 µM (inactive)
[44]
  GI50: > 100 µM (inactive)
[45]
  GI50: 39.4 µM
[46]
  GI50: 63.2 µM (inactive)
[47]
  GI50: 64.9 µM (inactive)
[48]
  GI50: 58.3 µM (inactive)
[49]
  GI50: 69.3 µM (inactive)
[50]
  GI50: 19.6 µM (inactive)
[51]
  GI50: 26 µM (inactive)
[52]
  GI50: 26.8 µM (inactive)
[54]
  GI50: 38.3 µM (inactive)
[55]
  GI50: 42.1 µM (inactive)

## CCCCCC[N+](C)(C)Cc1ccc(C[N+](C)(C)CCCCCC)cc1
[1]
  GI50: 8.43 µM (inactive)
[2]
  GI50: 9.66 µM (inactive)
[3]
  GI50: 4.33 µM (inactive)
[4]
  GI50: 1.82 µM (inactive)
[5]
  GI50: 3.56 µM (inactive)
[6]
  GI50: 3.51 µM (inactive)
[7]
  GI50: 1.94 µM (inactive)
[8]
  GI50: 1.82 µM (inactive)
[9]
  GI50: 10.8 µM (inactive)
[10]
  GI50: 1.16 µM (inactive)
[11]
  GI50: 2.79 µM (inactive)
[12]
  GI50: 2.57 µM (inactive)
[13]
  GI50: 3.94 µM (inactive)
[14]
  GI50: 1.54 µM (inactive)
[15]
  GI50: 1.61 µM (inactive)
[17]
  GI50: 1.83 µM (inactive)
[18]
  GI50: 3.05 µM (inactive)
[19]
  GI50: 2.73 µM (inactive)
[58]
  GI50: 0.984 µM (active)
[20]
  GI50: 4.69 µM (inactive)
[21]
  GI50: 2.64 µM (inactive)
[22]
  GI50: 3.78 µM (inactive)
[23]
  GI50: 5.64 µM (inactive)
[25]
  GI50: 6.64 µM (inactive)
[26]
  GI50: 3.19 µM (inactive)
[27]
  GI50: 8.32 µM (inactive)
[28]
  GI50: 2.14 µM (inactive)
[29]
  GI50: 3.52 µM (inactive)
[30]
  GI50: 5.2 µM (inactive)
[31]
  GI50: 2.54 µM (inactive)
[32]
  GI50: 1.75 µM (inactive)
[33]
  GI50: 3.8 µM (inactive)
[56]
  GI50: 3.71 µM (inactive)
[34]
  GI50: 2.09 µM (inactive)
[57]
  GI50: 2.19 µM (inactive)
[35]
  GI50: 6.56 µM (inactive)
[36]
  GI50: 1.74 µM (inactive)
[37]
  GI50: 3.49 µM (inactive)
[38]
  GI50: 2.79 µM (inactive)
[39]
  GI50: 2.25 µM (inactive)
[40]
  GI50: 4.42 µM (inactive)
[41]
  GI50: 11.2 µM (inactive)
[42]
  GI50: 3.33 µM (inactive)
[43]
  GI50: 10.9 µM (inactive)
[44]
  GI50: 4.58 µM (inactive)
[45]
  GI50: 4 µM
[46]
  GI50: 3.1 µM (inactive)
[47]
  GI50: 7.76 µM (inactive)
[48]
  GI50: 2.8 µM (inactive)
[49]
  GI50: 4.95 µM (inactive)
[50]
  GI50: 4.23 µM (inactive)
[51]
  GI50: 2.97 µM (inactive)
[52]
  GI50: 3.48 µM (inactive)
[53]
  GI50: 3.84 µM (inactive)
[54]
  GI50: 4.84 µM (inactive)
[55]
  GI50: 3.36 µM (inactive)
